Assay results reported in US7087756B2, “Isoxazolopyridinones” (Novartis AG, priority 2001, dated 2006).

Target: Nurr1 receptor (Homo sapiens, UniProt P43354)
Assay: Transactivation of a Nurr1 responsive reporter gene in a midbrain dopaminergic cell line
Type: cell-based
Details: read-out: EC50 of increase of reporter gene activity
Source text: The activity of the agents of the invention at the Nurr1 receptor can be determined in vitro in cellular assays:
Induction of the biological activity of the Nurr1 receptor by the agents of the invention can be measured by the transactivation of a Nurr1 responsive reporter gene in a midbrain dopaminergic cell line. The assay is based on the transcription promoting effect of Nurr1. The reporter gene can be activated both by Nurr1 monomers and Nurr1/RXR heterodimers. RXR is a frequent heterodimerisation partner of nuclear receptors and it has been shown that Nurr1 can form heterodimers with RXR (Zetterström RH et al. Mol. Endocrinol. 1996; 10:1656–1666).

Chain of Nurr1 receptor (P43354 whole entry): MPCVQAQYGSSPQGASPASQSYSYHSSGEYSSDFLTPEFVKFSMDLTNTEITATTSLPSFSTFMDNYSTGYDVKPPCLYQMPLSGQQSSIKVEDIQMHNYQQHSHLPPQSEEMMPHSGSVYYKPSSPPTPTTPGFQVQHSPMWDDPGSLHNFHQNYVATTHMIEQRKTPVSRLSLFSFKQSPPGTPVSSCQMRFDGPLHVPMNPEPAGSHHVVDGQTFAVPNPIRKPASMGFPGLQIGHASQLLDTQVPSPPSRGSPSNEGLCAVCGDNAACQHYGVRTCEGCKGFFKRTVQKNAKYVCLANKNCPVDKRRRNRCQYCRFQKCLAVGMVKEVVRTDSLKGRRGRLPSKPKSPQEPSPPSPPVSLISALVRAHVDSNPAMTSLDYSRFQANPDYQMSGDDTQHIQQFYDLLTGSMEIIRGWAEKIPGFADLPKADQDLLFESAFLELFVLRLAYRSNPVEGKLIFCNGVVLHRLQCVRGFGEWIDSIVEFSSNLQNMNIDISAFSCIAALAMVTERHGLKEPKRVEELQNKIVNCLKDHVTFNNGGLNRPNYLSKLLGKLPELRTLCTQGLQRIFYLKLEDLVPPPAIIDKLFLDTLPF

COCCOCc1ccc(-c2cc3onc(-c4ccccc4)c3c(=O)n2C)cc1 [Example 7, 6-[4-(2-Methoxy-ethoxymethyl)-phenyl]-5-methyl-3-phenyl-5H-isoxazolo[4,5-c]pyridin-4-one]
EC50: 40 nM

CN(C)Cc1ccc(-c2cc3onc(-c4ccccc4)c3c(=O)[nH]2)cc1 [Example 11, 6-(4-Dimethylaminomethyl-phenyl)-3-phenyl-5H-isoxazolo[4,5-c]pyridin-4-one]
EC50: 70 nM
